Source: ChEMBL document CHEMBL1155881, “Structure-based development of novel adenylyl cyclase inhibitors” (J Med Chem, 2008)
Active and inactive are the calls of the source. The rule behind the calls is not given here.

Legend:
Adenylate cyclase = target: T1, Adenylate cyclase (Arthrospira platensis, UniProt O32393); assay: Inhibition of Spirulina platensis adenylyl cyclase assessed as cAMP level by cAMP immunogenic assay; set-up: species or system Limnospira platensis
T1 sequence (O32393 whole entry): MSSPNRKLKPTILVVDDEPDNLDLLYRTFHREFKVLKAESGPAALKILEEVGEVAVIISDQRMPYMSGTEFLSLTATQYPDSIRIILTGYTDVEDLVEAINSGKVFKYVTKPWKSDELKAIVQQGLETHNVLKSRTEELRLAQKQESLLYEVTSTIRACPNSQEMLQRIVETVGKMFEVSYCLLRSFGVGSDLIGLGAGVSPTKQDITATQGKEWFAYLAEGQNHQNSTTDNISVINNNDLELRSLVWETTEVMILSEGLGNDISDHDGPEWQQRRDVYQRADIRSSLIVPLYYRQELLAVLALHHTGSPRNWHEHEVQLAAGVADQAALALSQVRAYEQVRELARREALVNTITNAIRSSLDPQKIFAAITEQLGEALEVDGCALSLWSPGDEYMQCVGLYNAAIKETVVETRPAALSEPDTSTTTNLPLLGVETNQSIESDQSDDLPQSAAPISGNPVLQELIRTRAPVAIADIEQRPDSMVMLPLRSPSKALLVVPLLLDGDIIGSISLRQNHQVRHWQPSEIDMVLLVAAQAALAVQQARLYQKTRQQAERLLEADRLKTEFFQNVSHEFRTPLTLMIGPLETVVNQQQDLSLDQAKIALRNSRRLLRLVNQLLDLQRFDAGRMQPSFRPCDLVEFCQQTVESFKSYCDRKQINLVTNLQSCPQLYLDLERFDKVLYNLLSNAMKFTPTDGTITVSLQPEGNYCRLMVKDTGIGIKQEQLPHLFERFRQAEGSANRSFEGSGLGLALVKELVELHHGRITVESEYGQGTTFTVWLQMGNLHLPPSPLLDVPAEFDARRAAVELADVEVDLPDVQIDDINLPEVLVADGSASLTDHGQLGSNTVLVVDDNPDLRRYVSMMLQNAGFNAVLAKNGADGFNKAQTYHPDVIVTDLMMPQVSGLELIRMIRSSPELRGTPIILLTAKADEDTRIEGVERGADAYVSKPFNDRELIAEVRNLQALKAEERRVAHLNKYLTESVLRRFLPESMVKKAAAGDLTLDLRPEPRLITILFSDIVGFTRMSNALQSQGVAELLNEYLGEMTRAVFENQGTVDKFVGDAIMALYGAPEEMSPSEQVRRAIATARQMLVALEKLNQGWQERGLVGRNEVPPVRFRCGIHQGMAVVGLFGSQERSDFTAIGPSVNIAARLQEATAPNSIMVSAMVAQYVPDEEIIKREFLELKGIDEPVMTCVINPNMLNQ

[1] = target: Adenylate cyclase type 10 (Homo sapiens, UniProt Q96PN6); assay: Inhibition of human recombinant soluble adenylyl cyclase
Chain of Adenylate cyclase type 10 (Q96PN6 whole entry): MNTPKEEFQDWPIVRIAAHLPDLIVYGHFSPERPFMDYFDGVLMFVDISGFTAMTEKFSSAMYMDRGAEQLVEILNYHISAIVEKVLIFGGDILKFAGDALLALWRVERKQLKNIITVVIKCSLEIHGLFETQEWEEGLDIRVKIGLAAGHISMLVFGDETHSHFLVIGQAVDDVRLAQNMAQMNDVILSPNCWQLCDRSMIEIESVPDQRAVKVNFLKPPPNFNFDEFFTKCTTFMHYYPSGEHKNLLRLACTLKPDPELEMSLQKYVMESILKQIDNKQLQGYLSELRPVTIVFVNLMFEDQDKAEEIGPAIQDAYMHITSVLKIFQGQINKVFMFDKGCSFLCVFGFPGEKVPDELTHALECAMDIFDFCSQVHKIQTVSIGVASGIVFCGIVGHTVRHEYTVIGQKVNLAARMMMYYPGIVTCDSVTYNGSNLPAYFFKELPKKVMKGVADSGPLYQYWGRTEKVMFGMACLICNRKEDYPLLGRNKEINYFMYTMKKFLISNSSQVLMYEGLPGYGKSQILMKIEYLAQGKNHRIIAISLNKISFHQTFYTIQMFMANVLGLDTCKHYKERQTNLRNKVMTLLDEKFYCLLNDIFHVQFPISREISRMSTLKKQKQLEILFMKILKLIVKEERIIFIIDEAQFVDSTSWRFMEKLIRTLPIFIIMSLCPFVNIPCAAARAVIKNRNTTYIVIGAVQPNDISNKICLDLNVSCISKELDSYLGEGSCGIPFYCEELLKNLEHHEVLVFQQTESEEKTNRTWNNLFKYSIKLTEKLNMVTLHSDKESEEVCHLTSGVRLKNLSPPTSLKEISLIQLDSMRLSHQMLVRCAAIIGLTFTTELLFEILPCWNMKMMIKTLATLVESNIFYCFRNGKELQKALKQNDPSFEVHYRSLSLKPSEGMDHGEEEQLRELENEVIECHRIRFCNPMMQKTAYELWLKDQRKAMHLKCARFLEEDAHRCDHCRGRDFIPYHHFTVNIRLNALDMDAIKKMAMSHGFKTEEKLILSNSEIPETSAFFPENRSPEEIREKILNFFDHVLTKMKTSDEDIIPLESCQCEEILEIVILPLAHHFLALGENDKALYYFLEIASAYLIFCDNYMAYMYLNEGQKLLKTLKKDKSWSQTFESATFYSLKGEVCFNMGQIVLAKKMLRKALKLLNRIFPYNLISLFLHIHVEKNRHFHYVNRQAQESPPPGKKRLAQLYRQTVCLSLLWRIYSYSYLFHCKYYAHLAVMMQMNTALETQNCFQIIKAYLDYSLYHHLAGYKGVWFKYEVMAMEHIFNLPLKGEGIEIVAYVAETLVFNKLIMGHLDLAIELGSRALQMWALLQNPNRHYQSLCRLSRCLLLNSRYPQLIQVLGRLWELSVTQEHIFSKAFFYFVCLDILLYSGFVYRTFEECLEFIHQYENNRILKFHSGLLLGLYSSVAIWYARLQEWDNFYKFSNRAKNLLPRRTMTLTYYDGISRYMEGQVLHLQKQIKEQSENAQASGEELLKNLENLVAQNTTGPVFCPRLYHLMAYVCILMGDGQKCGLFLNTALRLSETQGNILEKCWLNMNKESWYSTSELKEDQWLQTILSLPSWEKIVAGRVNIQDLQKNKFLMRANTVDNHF

[2] = target: Adenylate cyclase (Homo sapiens) (UniProt Q8NFM4+O60503+Q08828+P40145+O60266+O95622+O43306+Q08462+P51828); assay: Inhibition of forskolin-stimulated human transmembrane adenylyl cyclase activity in HEK293 cells at 100 uM; type: cell-based
[3] = target: Adenylate cyclase type 1 (Homo sapiens) (UniProt Q08828); assay: Inhibition of forskolin-stimulated adenylyl cyclase 1 activity expressed in HEK293 cells at 100 uM; type: cell-based
Chain of Adenylate cyclase type 1 (Homo sapiens) (Q08828 whole entry, looked up): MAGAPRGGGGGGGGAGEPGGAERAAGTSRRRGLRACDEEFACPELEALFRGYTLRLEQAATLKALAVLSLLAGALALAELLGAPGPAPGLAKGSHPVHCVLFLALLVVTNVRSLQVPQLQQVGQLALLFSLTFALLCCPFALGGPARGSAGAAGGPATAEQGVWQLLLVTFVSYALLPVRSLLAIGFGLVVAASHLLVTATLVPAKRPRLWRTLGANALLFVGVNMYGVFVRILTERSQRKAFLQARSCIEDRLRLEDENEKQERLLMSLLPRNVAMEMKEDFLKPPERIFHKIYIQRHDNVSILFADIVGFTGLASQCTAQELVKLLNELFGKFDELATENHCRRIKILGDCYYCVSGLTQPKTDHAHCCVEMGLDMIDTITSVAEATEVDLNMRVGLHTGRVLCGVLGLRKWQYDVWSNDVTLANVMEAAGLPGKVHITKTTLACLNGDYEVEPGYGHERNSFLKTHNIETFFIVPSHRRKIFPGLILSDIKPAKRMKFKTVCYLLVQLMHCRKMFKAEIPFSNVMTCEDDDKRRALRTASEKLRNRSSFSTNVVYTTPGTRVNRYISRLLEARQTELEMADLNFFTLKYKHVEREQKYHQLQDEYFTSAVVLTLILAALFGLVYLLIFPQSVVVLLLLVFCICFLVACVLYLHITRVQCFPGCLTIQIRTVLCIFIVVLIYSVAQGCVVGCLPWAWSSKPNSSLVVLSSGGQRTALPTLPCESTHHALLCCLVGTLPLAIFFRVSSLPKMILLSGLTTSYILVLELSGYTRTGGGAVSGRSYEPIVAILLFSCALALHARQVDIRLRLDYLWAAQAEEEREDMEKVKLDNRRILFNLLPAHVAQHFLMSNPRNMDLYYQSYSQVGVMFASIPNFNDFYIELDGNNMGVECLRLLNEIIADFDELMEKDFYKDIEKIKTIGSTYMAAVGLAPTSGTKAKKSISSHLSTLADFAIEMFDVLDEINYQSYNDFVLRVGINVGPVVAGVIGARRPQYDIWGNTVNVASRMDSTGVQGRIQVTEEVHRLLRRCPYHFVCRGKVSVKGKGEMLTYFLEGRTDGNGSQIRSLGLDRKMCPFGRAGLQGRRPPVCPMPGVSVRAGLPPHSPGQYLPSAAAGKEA

[4] = target: Adenylate cyclase type 2 (Homo sapiens) (UniProt Q08462); assay: Inhibition of basal activity of adenylyl cyclase 2 expressed in HEK293 cells at 100 uM; type: cell-based
Chain of Adenylate cyclase type 2 (Homo sapiens) (Q08462 whole entry): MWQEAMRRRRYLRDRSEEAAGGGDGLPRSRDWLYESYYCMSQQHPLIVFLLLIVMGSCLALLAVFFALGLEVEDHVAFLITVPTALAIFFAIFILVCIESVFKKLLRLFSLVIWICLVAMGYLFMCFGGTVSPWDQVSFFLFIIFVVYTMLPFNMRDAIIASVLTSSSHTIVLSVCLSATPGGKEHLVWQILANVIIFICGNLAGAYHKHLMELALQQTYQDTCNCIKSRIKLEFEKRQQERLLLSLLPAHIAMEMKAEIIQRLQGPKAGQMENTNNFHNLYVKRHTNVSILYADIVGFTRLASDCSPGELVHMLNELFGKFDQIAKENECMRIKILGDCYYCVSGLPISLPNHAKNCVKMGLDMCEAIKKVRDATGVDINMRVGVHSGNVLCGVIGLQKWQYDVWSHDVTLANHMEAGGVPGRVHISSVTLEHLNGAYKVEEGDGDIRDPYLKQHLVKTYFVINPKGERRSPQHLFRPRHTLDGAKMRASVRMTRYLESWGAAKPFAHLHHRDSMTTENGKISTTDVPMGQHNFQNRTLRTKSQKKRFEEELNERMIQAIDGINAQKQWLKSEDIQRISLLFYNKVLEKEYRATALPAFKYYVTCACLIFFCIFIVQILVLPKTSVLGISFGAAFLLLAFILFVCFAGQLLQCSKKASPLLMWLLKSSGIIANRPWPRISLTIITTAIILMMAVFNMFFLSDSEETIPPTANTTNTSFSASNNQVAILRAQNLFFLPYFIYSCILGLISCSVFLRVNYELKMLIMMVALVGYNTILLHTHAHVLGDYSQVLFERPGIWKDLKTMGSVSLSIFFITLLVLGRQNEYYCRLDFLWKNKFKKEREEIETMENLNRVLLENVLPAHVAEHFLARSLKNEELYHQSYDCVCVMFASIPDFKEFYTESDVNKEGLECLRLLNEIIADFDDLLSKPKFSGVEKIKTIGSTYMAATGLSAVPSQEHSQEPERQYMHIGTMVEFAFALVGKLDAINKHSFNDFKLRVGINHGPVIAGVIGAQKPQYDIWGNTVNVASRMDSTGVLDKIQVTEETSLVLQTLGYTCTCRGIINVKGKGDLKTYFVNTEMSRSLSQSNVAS

[5] = target: Adenylate cyclase type 5 (Homo sapiens) (UniProt O95622); assay: Inhibition of forskolin-stimulated adenylyl cyclase 5 activity expressed in HEK293 cells at 100 uM; type: cell-based
Chain of Adenylate cyclase type 5 (Homo sapiens) (O95622 whole entry, looked up): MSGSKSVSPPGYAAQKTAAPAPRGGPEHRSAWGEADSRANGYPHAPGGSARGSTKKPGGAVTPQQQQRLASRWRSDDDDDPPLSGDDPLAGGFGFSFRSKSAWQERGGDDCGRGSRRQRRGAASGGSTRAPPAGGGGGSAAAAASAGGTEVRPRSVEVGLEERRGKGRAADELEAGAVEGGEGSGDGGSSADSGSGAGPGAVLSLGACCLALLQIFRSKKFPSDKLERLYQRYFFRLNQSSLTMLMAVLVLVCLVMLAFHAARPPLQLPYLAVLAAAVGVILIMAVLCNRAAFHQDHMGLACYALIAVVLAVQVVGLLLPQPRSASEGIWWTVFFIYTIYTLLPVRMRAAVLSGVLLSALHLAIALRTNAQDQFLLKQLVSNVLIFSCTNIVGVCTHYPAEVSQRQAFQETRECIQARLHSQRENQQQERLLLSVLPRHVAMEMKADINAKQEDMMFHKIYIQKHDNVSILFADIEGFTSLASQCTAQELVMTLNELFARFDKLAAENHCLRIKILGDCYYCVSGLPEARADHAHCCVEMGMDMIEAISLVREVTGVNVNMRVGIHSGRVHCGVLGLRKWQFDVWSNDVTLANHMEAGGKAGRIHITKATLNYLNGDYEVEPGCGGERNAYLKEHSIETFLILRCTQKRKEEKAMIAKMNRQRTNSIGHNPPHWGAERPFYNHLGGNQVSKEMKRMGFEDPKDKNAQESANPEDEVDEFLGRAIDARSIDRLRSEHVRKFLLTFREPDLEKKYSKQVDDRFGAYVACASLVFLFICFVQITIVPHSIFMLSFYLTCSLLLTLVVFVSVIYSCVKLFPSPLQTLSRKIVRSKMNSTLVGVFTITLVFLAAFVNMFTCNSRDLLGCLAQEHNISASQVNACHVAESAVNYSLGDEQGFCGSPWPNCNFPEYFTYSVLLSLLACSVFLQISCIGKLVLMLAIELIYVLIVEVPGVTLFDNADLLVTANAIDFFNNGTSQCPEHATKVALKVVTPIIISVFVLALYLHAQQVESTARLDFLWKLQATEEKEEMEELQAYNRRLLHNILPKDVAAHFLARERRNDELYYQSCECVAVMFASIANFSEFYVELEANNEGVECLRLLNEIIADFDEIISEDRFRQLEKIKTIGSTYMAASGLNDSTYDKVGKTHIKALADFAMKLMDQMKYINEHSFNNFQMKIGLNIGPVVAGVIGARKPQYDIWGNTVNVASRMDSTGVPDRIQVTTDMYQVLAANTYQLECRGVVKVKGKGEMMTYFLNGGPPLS

[6] = target: T2, Adenylate cyclase type 9 (Homo sapiens) (UniProt O60503); assay: Inhibition of basal activity of adenylyl cyclase 9 expressed in HEK293 cells at 100 uM; type: cell-based
T2 sequence (whole entry): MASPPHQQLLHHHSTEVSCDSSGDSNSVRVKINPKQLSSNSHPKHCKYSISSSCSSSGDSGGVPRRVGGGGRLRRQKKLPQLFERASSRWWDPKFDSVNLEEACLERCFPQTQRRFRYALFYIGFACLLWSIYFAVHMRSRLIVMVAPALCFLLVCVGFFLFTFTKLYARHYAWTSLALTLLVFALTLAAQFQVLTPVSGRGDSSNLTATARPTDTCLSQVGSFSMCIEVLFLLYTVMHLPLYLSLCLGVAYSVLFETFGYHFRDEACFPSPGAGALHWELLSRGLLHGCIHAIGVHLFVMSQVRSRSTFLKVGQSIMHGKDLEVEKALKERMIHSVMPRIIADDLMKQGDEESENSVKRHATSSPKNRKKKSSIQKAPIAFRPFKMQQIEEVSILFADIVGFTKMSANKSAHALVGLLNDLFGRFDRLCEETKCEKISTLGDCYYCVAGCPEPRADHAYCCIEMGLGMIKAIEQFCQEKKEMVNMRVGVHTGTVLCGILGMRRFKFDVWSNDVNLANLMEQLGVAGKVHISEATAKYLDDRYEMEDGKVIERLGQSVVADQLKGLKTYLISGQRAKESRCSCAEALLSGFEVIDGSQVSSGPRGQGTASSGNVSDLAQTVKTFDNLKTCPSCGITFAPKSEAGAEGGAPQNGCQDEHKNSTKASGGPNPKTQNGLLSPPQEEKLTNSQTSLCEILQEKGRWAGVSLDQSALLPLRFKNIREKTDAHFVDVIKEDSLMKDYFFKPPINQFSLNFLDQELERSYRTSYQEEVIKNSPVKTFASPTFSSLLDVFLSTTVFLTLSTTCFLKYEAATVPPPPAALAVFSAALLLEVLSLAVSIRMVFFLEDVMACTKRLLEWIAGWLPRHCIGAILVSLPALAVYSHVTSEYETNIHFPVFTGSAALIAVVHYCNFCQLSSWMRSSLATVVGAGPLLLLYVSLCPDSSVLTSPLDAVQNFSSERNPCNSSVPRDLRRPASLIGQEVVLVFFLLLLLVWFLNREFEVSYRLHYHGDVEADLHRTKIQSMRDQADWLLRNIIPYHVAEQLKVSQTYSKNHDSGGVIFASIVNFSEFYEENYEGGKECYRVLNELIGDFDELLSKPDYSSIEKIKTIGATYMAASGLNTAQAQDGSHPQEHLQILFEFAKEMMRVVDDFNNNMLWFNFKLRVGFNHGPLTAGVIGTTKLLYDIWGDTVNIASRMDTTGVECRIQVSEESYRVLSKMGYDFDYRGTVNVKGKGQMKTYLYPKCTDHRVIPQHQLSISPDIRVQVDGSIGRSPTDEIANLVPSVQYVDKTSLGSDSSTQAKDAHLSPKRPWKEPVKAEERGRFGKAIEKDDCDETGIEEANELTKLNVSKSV

[7] = target: Adenylate cyclase type 2 (Homo sapiens) (UniProt Q08462); assay: Stimulation of basal activity of adenylyl cyclase 2 expressed in HEK293 cells at 100 uM in presence of forskolin; type: cell-based

IC50 (Adenylate cyclase) [µM]	Structure (SMILES)	IC50 [1] [µM]	Activity [2]	Activity [3]	Activity [4]	Activity [5]	Activity [6]	Activity [7]
200	BrC(c1cccc2ccccc12)c1cccc2ccccc12							
	O=C(O)c1cc2c(cc1S(=O)(=O)O)C1C(C3C2C2(Cl)C(Cl)=C(Cl)C3(Cl)C2(Cl)Cl)C2(Cl)C(Cl)=C(Cl)C1(Cl)C2(Cl)Cl (stereo unspecified)	11	Active	Active	Active	Active	Active	Active
100	C[C@H]1[C@H](C)CC[C@]2(C(=O)O)CC[C@]3(C)C(=CC[C@@H]4[C@@]5(C)C[C@@H](O)[C@H](O)[C@@](C)(CO)[C@@H]5[C@H](O)C[C@]43C)[C@H]12 [MADECASSIC ACID]							
	C[C@]12CC[C@@H]3c4cc(O)c(O)cc4CC[C@H]3[C@@H]1CC[C@@H]2O	3						
	C[C@]12CC[C@H]3[C@@H](CCC4=CC(=O)CC[C@@]43C)[C@@H]1CC[C@@H]2C(=O)COS(=O)(=O)c1ccc(Br)cc1	1.1	inactive	inactive	inactive	inactive	inactive	
